Results as given in patent US12371428B2 (Exelixis, Inc., priority 2019, dated 2025).

Tests used:
[1] = target: Human MER (residues 528-999) (Homo sapiens (Human), UniProt Q12866); experiment: Human Mer kinase assay, HTRF KinEase (Example C-2); format: biochemical; settings: protocol of Example C-2 (other compounds)
Summary of the method: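 HTRF KinEase TK assay with MER 528-999 (1 ng/well) in enzymatic buffer plus 5 mM MgCl2 and 1 mM DTT, biotinylated peptide substrate and ATP at Km (40 μM), 3% DMSO final, 60 min at room temperature. Stopped with EDTA detection mix (SA-XL665, TK antibody-Eu3+), read at 665/620 nm after 60 min; IC50 from 10-point 4-parameter fit, normalized to DMSO and 1 μM reference.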

[2] = target: Mer (phospho-Mer, MERTK-transfected 293A cells) (Homo sapiens (Human), UniProt Q12866); experiment: Mer autophosphorylation ELISA in transient transfected 293A cells (Example H); format: cell-based; settings: cellular activity; Mer autophosphorylation ELISA in transient transfected 293A cells
Summary of the method: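 Human MERTK transiently transfected into 293A cells; compounds as 8-point dose curve in serum-free medium (0.3% DMSO final), 1 h. Lysates assayed by phospho-Mer sandwich ELISA against phospho-Mer standard; DMSO = 100%, reference inhibitor = 0% activity; IC50 from 4-parameter logistic fit.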

[3] = target: Met (phospho-Met, HGF-stimulated PC-3 prostate cancer cells) (Homo sapiens (Human), UniProt P08581); experiment: Met autophosphorylation ELISA in PC-3 cells (Example F); format: cell-based; settings: cellular activity; Met autophosphorylation ELISA in PC-3 cells; read-out: c-Met IC50
Summary of the method: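 IC50 values derive from a 4-parameter logistic fit of phospho-Met (panTyr) sandwich ELISA signals in PC-3 lysates, scaled between DMSO and reference-inhibitor wells. Cells, starved 3 h in serum-free medium, had 1 h compound exposure (8 doses, 0.3% DMSO) before 10 min stimulation with 100 ng/mL HGF.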

[4] = target: Human MET (residues 956-1390) (Homo sapiens (Human), UniProt P08581); experiment: Human Met kinase assay, HTRF KinEase (Example D-2); format: biochemical; settings: protocol of Example D-2 (other compounds); read-out: c-Met IC50
Summary of the method: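 HTRF KinEase assay on MET residues 956-1390 (0.1 ng/well) in buffer with 5 mM MgCl2, 1 mM DTT and 1 mM MnCl2, with biotinylated peptide substrate, ATP at Km, 10 compound concentrations and 3% DMSO final, run 40 min at room temperature. The […] signal was normalized to DMSO and to 1 μM reference compound, and IC50 came from a 4-parameter logistic fit.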

Measured: IC50

Human MET (residues 956-1390), sequence (P08581 956-1390): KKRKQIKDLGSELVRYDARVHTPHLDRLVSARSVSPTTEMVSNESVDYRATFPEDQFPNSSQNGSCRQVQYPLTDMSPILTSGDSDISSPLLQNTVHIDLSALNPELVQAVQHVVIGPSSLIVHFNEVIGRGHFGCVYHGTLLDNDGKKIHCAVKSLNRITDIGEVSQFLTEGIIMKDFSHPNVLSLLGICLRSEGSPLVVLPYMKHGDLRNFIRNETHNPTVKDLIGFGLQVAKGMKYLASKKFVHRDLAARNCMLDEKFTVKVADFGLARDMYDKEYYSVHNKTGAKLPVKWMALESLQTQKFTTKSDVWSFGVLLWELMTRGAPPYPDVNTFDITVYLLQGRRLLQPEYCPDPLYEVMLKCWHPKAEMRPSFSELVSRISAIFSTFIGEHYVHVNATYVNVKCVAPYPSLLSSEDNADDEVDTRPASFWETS
Mer (phospho-Mer, MERTK-transfected 293A cells), sequence (Q12866 21-999): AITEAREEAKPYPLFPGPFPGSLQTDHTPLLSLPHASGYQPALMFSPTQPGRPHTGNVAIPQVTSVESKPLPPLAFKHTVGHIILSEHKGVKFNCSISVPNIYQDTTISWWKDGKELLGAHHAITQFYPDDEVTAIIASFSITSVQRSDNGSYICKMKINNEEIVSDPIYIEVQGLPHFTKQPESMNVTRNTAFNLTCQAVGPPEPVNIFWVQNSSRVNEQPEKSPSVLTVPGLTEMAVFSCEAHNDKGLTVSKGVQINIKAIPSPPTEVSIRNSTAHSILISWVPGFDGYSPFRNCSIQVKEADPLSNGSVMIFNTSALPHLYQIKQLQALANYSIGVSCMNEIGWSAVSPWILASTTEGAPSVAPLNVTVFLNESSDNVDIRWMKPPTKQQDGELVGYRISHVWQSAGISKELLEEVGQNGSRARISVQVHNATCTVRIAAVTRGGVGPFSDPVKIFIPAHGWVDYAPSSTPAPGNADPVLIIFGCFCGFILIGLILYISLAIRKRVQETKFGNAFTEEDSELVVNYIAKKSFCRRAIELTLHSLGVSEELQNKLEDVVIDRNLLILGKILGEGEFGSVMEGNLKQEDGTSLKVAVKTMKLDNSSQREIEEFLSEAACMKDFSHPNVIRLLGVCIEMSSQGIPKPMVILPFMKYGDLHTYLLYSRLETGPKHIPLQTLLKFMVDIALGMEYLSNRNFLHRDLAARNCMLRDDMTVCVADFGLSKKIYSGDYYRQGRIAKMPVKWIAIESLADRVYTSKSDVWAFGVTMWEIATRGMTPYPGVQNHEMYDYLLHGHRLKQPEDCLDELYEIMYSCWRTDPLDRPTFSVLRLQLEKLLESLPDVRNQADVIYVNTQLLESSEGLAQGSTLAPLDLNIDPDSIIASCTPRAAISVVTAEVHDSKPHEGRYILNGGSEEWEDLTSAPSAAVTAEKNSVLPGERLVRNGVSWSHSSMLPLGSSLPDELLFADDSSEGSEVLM
Human MER (residues 528-999), sequence (Q12866 528-999): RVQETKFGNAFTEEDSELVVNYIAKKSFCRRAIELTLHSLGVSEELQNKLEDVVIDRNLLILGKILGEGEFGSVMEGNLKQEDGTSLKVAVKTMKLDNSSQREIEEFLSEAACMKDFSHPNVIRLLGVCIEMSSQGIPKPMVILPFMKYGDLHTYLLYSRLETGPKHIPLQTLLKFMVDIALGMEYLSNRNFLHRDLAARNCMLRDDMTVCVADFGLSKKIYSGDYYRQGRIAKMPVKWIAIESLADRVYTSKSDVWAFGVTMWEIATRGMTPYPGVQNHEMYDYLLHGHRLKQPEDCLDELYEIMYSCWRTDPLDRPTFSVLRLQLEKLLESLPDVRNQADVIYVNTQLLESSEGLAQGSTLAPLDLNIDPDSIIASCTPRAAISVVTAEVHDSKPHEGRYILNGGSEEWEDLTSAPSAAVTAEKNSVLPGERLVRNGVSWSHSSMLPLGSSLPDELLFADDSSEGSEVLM
Met (phospho-Met, HGF-stimulated PC-3 prostate cancer cells), sequence (P08581 25-1390): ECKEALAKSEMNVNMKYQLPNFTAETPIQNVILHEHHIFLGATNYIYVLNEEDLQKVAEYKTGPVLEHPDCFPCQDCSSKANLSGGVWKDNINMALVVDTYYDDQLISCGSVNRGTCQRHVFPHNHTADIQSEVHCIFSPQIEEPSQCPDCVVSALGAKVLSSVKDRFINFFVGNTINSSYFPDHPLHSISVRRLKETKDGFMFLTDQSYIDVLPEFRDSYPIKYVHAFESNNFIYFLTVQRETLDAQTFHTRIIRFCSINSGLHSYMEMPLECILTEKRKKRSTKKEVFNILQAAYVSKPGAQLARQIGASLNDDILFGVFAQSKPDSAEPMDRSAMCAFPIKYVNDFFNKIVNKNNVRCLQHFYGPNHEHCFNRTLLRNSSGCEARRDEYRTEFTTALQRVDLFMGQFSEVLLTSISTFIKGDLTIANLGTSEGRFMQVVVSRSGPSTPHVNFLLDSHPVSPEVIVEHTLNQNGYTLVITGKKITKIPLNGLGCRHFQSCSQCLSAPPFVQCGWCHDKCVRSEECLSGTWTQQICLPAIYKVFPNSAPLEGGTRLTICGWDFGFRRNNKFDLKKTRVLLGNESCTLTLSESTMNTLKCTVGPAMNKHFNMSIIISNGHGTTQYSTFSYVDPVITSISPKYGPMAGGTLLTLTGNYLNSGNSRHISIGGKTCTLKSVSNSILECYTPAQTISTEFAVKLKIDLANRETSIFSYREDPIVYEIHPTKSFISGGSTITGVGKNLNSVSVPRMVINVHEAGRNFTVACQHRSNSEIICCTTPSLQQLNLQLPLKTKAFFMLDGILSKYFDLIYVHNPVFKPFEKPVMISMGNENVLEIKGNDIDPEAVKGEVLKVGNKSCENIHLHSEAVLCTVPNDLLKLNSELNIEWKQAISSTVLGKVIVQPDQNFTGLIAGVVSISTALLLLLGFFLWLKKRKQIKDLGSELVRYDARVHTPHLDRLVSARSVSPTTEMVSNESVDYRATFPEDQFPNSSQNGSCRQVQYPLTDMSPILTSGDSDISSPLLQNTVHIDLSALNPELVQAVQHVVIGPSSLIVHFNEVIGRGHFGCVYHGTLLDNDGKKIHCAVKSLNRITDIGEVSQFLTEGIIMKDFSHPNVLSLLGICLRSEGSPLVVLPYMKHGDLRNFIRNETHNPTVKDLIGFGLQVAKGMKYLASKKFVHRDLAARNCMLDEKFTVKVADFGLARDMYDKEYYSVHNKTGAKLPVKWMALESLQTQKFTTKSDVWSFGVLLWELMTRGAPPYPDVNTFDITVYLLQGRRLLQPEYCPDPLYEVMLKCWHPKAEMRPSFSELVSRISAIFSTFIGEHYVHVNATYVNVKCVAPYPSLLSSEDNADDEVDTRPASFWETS

COc1cc2nccc(Oc3ccc(NC(=O)c4cc(C)c(C)n(-c5ccc(F)cc5)c4=O)cc3F)c2nc1OC [Compound 370, N-[4-[(6,7-dimethoxy-1,5-naphthyridin-4-yl)oxy]-3-fluorophenyl]-1-(4-fluorophenyl)-5,6-dimethyl-2-oxopyridine-3-carboxamide]
< 100 nM: all assays above

COc1cc2nccc(Oc3ccc(NC(=O)c4cc(C(C)C)c(C)n(-c5ccc(F)cc5)c4=O)cc3F)c2nc1OC [Compound 368, N-[4-[(6,7-dimethoxy-1,5-naphthyridin-4-yl)oxy]-3-fluorophenyl]-1-(4-fluorophenyl)-6-methyl-2-oxo-5-propan-2-ylpyridine-3-carboxamide]
< 100 nM: all assays above

COc1cnc2c(Oc3ccc(NC(=O)c4c(C)cc(C)n(-c5ccc(F)cc5)c4=O)cc3F)ccnc2c1 [Compound 280, N-[3-Fluoro-4-[(7-methoxy-1,5-naphthyridin-4-yl)oxy]phenyl]-1-(4-fluorophenyl)-4,6-dimethyl-2-oxopyridine-3-carboxamide]
< 100 nM: all assays above

COc1ccc2nccc(Oc3ccc(NC(=O)c4c(C)nc(C)c(-c5ccc(F)cc5)c4O)cc3F)c2c1 [Compound 345, N-[3-fluoro-4-(6-methoxyquinolin-4-yl)oxyphenyl]-5-(4-fluorophenyl)-4-hydroxy-2,6-dimethylpyridine-3-carboxamide]
< 100 nM: all assays above

COc1cnc2c(Oc3ccc(NC(=O)c4cccn(-c5ccc(F)cc5)c4=O)cc3F)ccnc2c1 [Compound 291, N-[3-Fluoro-4-[(7-methoxy-1,5-naphthyridin-4-yl)oxy]phenyl]-1-(4-fluorophenyl)-2-oxopyridine-3-carboxamide]
< 100 nM: all assays above

COc1cc2nccc(Oc3ccc(NC(=O)c4nccn(-c5ccc(F)cc5)c4=O)cc3)c2nc1OC [Compound 384, N-[4-[(6,7-dimethoxy-1,5-naphthyridin-4-yl)oxy]phenyl]-4-(4-fluorophenyl)-3-oxopyrazine-2-carboxamide]
< 100 nM: all assays above

COc1ccc2nccc(Oc3ccc(NC(=O)c4cn(C(C)C)c(C)c(-c5ccc(F)cc5)c4=O)cc3)c2n1 [Compound 341, 5-(4-fluorophenyl)-N-[4-[(6-methoxy-1,5-naphthyridin-4-yl)oxy]phenyl]-6-methyl-4-oxo-1-propan-2-ylpyridine-3-carboxamide]
< 100 nM: all assays above

COc1cc2nccc(Oc3cc(F)c(NC(=O)c4cn(C)c(C)c(-c5ccc(F)cc5)c4=O)cc3F)c2nc1OC [Compound 391, N-[4-[(6,7-dimethoxy-1,5-naphthyridin-4-yl)oxy]-2,5-difluorophenyl]-5-(4-fluorophenyl)-1,6-dimethyl-4-oxopyridine-3-carboxamide]
< 100 nM: all assays above

Cc1ccc(C(=O)Nc2ccc(Oc3ccnc4ccc(OCCN5CCOCC5)nc34)c(F)c2)c(=O)n1-c1ccc(F)cc1 [Compound 351, N-[3-fluoro-4-[[6-(2-morpholin-4-ylethoxy)-1,5-naphthyridin-4-yl]oxy]phenyl]-1-(4-fluorophenyl)-6-methyl-2-oxopyridine-3-carboxamide]
< 100 nM: all assays above

Cc1ccc(C(=O)Nc2ccc(Oc3ccnc4ccc(OCCN(C)C)nc34)c(F)c2)c(=O)n1-c1ccc(F)cc1 [Compound 353, N-[4-[[6-[2-(dimethylamino)ethoxy]-1,5-naphthyridin-4-yl]oxy]-3-fluorophenyl]-1-(4-fluorophenyl)-6-methyl-2-oxopyridine-3-carboxamide]
< 100 nM: all assays above

CCn1cc(C(=O)Nc2ccc(Oc3ccnc4cc(OC)cnc34)c(F)c2)c(=O)c(-c2ccc(F)cc2C)c1CO [Compound 285, 1-Ethyl-N-[3-fluoro-4-[(7-methoxy-1,5-naphthyridin-4-yl)oxy]phenyl]-5-(4-fluoro-2-methylphenyl)-6-(hydroxymethyl)-4-oxopyridine-3-carboxamide]
< 100 nM: all assays above

CCn1cc(C(=O)Nc2ccc(Oc3ccnc4cc(OC)c(OC)nc34)cc2)c(=O)c(-c2ccc(F)cc2C)c1CO [Compound 284, N-[4-[(6,7-Dimethoxy-1,5-naphthyridin-4-yl)oxy]phenyl]-1-ethyl-5-(4-fluoro-2-methylphenyl)-6-(hydroxymethyl)-4-oxopyridine-3-carboxamide]
< 100 nM: all assays above

COc1ccc2nccc(Oc3ccc(NC(=O)c4c(C)nc(C)c(-c5ccc(F)cc5)c4O)cc3)c2n1 [Compound 340, 5-(4-fluorophenyl)-4-hydroxy-N-[4-[(6-methoxy-1,5-naphthyridin-4-yl)oxy]phenyl]-2,6-dimethylpyridine-3-carboxamide]
< 100 nM: all assays above

COc1ccc2nccc(Oc3ccc(NC(=O)c4nccn(-c5ccc(F)cc5)c4=O)cc3F)c2n1 [Compound 380, N-[3-fluoro-4-[(6-methoxy-1,5-naphthyridin-4-yl)oxy]phenyl]-4-(4-fluorophenyl)-3-oxopyrazine-2-carboxamide]
< 100 nM: all assays above

COc1cc2nccc(Oc3ccc(NC(=O)c4cn(C)c(C)c(-c5ccc(F)cc5)c4=O)c(F)c3F)c2nc1OC [Compound 390, N-[4-[(6,7-dimethoxy-1,5-naphthyridin-4-yl)oxy]-2,3-difluorophenyl]-5-(4-fluorophenyl)-1,6-dimethyl-4-oxopyridine-3-carboxamide]
< 100 nM: all assays above

COc1ccc2nccc(Oc3ccc(NC(=O)c4nccn(-c5ccc(F)cc5)c4=O)cc3)c2n1 [Compound 383, 4-(4-fluorophenyl)-N-[4-[(6-methoxy-1,5-naphthyridin-4-yl)oxy]phenyl]-3-oxopyrazine-2-carboxamide]
< 100 nM: all assays above
